Earlier results, collected in patent US20120196858A1, “METHOD OF PROMOTING APOPTOSIS AND INHIBITING METASTASIS” (Poniard Pharmaceuticals ,Inc., priority 2009, published 2012).

System: lung carcinoma xenografts
Details: previous studies; cited from earlier work

In the case of `CN(c1ncccc1CNc1nc(Nc2ccc3c(c2)CC(=O)N3)ncc1C(F)(F)F)S(C)(=O)=O` [PF-562,271], the tumor microvessel density is listed as “reduced tumor microvessel density”.
